The values that follow come from PubChem BioAssay (NCI).

Where “and” joins values, the source holds several entries; their conditions need not be identical. Equal values may be shown once.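 Protocol summary: plate cells (96-well), add compound at 5 concentrations, incubate 48 h, interpolate endpoints linearly. Here, GI50 denotes the concentration required for 50% inhibition of growth. TGI marks complete inhibition of growth.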

Some test systems named below: 786-0 renal; DU-145 prostate; HCT-15 colon; HOP-62 NSCLC; HS 578T breast; MALME-3M melanoma; OVCAR-4 ovarian; SF-539 CNS; U251 CNS; UO-31 renal.
Assay in all cases: NCI-60 cell line screen, 48 h

As for `Cc1c(C)c2c(c(C)c1NC(=O)/C=C\C(=O)O)CCC(C)(CCCC(C)CCCC(C)CCCC(C)C)O2` (stereo unspecified), the GI50 in the assay on 786-0 renal is 1.69 µM; with DU-145 prostate it was 1.69 µM; in the assay on HCT-15 colon it was 1.83 µM; in the assay on HOP-62 NSCLC, 1.64 µM; with HS 578T breast it was 1.89 µM; in the assay with MALME-3M melanoma, 1.7 µM. For the same compound, the GI50 in the assay with OVCAR-4 ovarian is 2.52 µM; in the assay with SF-539 CNS it was 1.68 µM; in the assay with U251 CNS, 1.64 µM; with UO-31 renal, 1.27 µM. Further, the TGI in the assay on 786-0 renal amounted to 3.06 µM; in the assay with DU-145 prostate, 3.05 µM; in the assay on HCT-15 colon it was 4.65 µM; with HOP-62 NSCLC, 3.08 µM; in the assay on HS 578T breast it was 4.97 µM; in the assay with MALME-3M melanoma, 3.16 µM. Moreover, the TGI in the assay with OVCAR-4 ovarian amounted to 5.16 µM; in the assay with SF-539 CNS, 3.11 µM; in the assay with U251 CNS, 3.18 µM; with UO-31 renal it was 2.55 µM.
In the case of `COc1cc(/C=N/Nc2ncnc3c2cnn3C(C)C)ccc1O`, the GI50 in the assay with 786-0 renal was 10.8 µM; with DU-145 prostate, 8.03 µM; with HCT-15 colon, 11 µM; in the assay on HOP-62 NSCLC, 6.5 µM; in the assay on HS 578T breast, 5.04 µM; in the assay on MALME-3M melanoma, 15 µM. Also, the GI50 with OVCAR-4 ovarian was 14.4 µM; in the assay with SF-539 CNS, 4.76 µM; in the assay with U251 CNS, 8.11 µM; with UO-31 renal it was 3.56 µM. The TGI is more than 25 µM in the assay with 786-0 renal; more than 25 µM with DU-145 prostate; more than 25 µM in the assay on HCT-15 colon; more than 25 µM in the assay with HOP-62 NSCLC; 24.8 µM with HS 578T breast; more than 25 µM in the assay on MALME-3M melanoma. Further, the TGI in the assay on OVCAR-4 ovarian was more than 25 µM; with SF-539 CNS, 15.2 µM; in the assay on U251 CNS, more than 25 µM; in the assay with UO-31 renal it was 17.3 µM.
On to `O=C(COc1ccc(/C=C2\Oc3ccccc3C2=O)cc1)Nc1nccs1`, for which the GI50 with 786-0 renal is 54.9 µM; with DU-145 prostate it was 71 µM; in the assay with HCT-15 colon it was more than 100 µM; in the assay with HOP-62 NSCLC it was 85.3 µM; in the assay on HS 578T breast it was 20.7 µM; in the assay with MALME-3M melanoma, more than 100 µM. For the same compound, the GI50 in the assay on OVCAR-4 ovarian was 70.4 µM; in the assay on SF-539 CNS, 32.5 µM; in the assay on U251 CNS, 40.6 µM; in the assay on UO-31 renal it was more than 100 µM. Moreover, the TGI is more than 100 µM in the assay on 786-0 renal; more than 100 µM in the assay on DU-145 prostate; more than 100 µM in the assay with HCT-15 colon; more than 100 µM with HOP-62 NSCLC; 80.5 µM in the assay with HS 578T breast; more than 100 µM in the assay on MALME-3M melanoma. In addition, the TGI in the assay with OVCAR-4 ovarian, in the assay with SF-539 CNS, in the assay with U251 CNS and with UO-31 renal was more than 100 µM throughout.
For `CC(=O)Nc1ccc(-c2c3nc(c(-c4cc5ccccc5[n+](C)c4)c4ccc([nH]4)c(-c4ccc(NC(C)=O)cc4)c4nc(c(-c5cc6ccccc6[n+](C)c5)c5ccc2[nH]5)C=C4)C=C3)cc1`, the GI50 with 786-0 renal was 9.97 µM; with DU-145 prostate, 5.93 µM; in the assay on HCT-15 colon it was more than 50 µM; with HOP-62 NSCLC it was 7.3 µM; in the assay on HS 578T breast, 22.9 µM; with MALME-3M melanoma, 16.9 µM. Also, the GI50 is 3.76 µM in the assay on OVCAR-4 ovarian, 13.5 µM with U251 CNS and 10.6 µM in the assay with UO-31 renal. Further, the TGI is 35.6 µM in the assay on 786-0 renal; 17.1 µM in the assay on DU-145 prostate; more than 50 µM with HCT-15 colon; 19.5 µM with HOP-62 NSCLC; more than 50 µM in the assay on HS 578T breast; more than 50 µM with MALME-3M melanoma. Besides, the figures for the TGI in the assay on OVCAR-4 ovarian, in the assay with U251 CNS and in the assay with UO-31 renal were 30.3 µM, more than 50 µM and 33.6 µM, respectively.
In the case of `Cc1cc(=O)oc2c(CN3CCCCC3)c(O)ccc12`, the TGI with 786-0 renal, with DU-145 prostate, in the assay with HCT-15 colon, in the assay on HOP-62 NSCLC, in the assay on HS 578T breast and in the assay on MALME-3M melanoma was more than 100 µM in each case. Further, the TGI in the assay with OVCAR-4 ovarian, in the assay on SF-539 CNS and in the assay with U251 CNS was more than 100 µM throughout.
As for `Cc1onc(-c2c(F)cccc2Cl)c1-c1ncc(-c2ccc(Cl)cc2)o1`, the GI50 with 786-0 renal is 5.14 µM; with DU-145 prostate, 14.6 µM; in the assay on HCT-15 colon, 2.89 µM; with HOP-62 NSCLC, 8.45 µM; in the assay on HS 578T breast, 14.1 µM; in the assay with MALME-3M melanoma, 6.43 µM. Further, the GI50 was 13.9 µM in the assay with OVCAR-4 ovarian, 5.07 µM in the assay with SF-539 CNS and 5.47 µM with UO-31 renal. The TGI in the assay with 786-0 renal, with DU-145 prostate, in the assay with HCT-15 colon, with HOP-62 NSCLC, in the assay on HS 578T breast and in the assay with MALME-3M melanoma was more than 100 µM throughout. Moreover, the TGI in the assay on OVCAR-4 ovarian, with SF-539 CNS and in the assay with UO-31 renal was more than 100 µM each time.
Turning to `O=C(/C=C/C12c3ccccc3C(c3ccccc31)C1C(=O)N(c3ccccc3)C(=O)C12)c1ccc(Cl)cc1` (stereo unspecified), the GI50 in the assay on 786-0 renal is 2.44 µM; in the assay with DU-145 prostate, 1.77 µM; with HCT-15 colon, 1.19 µM; with HOP-62 NSCLC, 2.45 µM; with HS 578T breast, 1.82 µM; in the assay with MALME-3M melanoma, 1.6 µM. In addition, the GI50 in the assay on SF-539 CNS is 1.69 µM; in the assay with U251 CNS, 1.84 µM; with UO-31 renal, 1.12 µM. In addition, the TGI with 786-0 renal amounted to 6.97 µM; in the assay on DU-145 prostate it was 4.03 µM; in the assay with HCT-15 colon, 6.46 µM; in the assay on HOP-62 NSCLC, 6.86 µM; with HS 578T breast, 5.92 µM; in the assay with MALME-3M melanoma, 3.37 µM. Moreover, the TGI with SF-539 CNS was determined as 3.79 µM; with U251 CNS, 4.82 µM; in the assay with UO-31 renal, 2.47 µM.
Take `O=[N+]([O-])c1cc([N+](=O)[O-])c(Cl)c(Cl)c1Cl`: the GI50 in the assay with 786-0 renal was 0.804 µM; in the assay on DU-145 prostate, 1.57 µM; with HOP-62 NSCLC, 1.67 µM; in the assay on HS 578T breast it was 2.26 µM; with MALME-3M melanoma, 1.7 µM; in the assay on OVCAR-4 ovarian it was 1.78 µM. Further, the figures for the GI50 with U251 CNS and with UO-31 renal were 1.59 µM and 1.51 µM, respectively. Besides, the TGI with 786-0 renal came out at 2.09 µM; with DU-145 prostate, 2.98 µM; with HOP-62 NSCLC, 3.05 µM; in the assay with HS 578T breast it was 5.31 µM; with MALME-3M melanoma, 3.77 µM; with OVCAR-4 ovarian, 3.16 µM. Also, the TGI was found to be 3.02 µM in the assay on U251 CNS and 3.08 µM in the assay with UO-31 renal.
For `O=C(Cn1c(=O)c(-c2ccccc2)nc2ccccc21)c1ccc(Cl)cc1`, the GI50 in the assay on 786-0 renal is 27 µM; in the assay with DU-145 prostate, 52.2 µM; in the assay on HCT-15 colon it was more than 100 µM; in the assay on HOP-62 NSCLC, 33.4 µM; in the assay with HS 578T breast, 43.5 µM; in the assay with MALME-3M melanoma, more than 100 µM. The GI50 is 33.4 µM in the assay on OVCAR-4 ovarian, 37.6 µM in the assay on U251 CNS and 80.8 µM with UO-31 renal. Further, the TGI with 786-0 renal was 86.6 µM; with DU-145 prostate it was more than 100 µM; in the assay on HCT-15 colon, more than 100 µM; in the assay with HOP-62 NSCLC it was more than 100 µM; in the assay with HS 578T breast, more than 100 µM; in the assay on MALME-3M melanoma, more than 100 µM. Besides, the TGI in the assay on OVCAR-4 ovarian, with U251 CNS and in the assay on UO-31 renal was more than 100 µM each time.
Regarding `COc1cc(-c2nn(-c3ccc(NC(=O)Nc4ccc(Cl)c(Cl)c4)cc3)cc2-c2ccncc2)ccc1Cl`, the GI50 with 786-0 renal was 2.4 µM; in the assay with DU-145 prostate it was 4.33 µM; in the assay with HCT-15 colon, 2.88 µM; with HOP-62 NSCLC, 3.79 µM; with HS 578T breast it was 3.22 µM; with OVCAR-4 ovarian, 4.41 µM. Further, the GI50 in the assay with SF-539 CNS is 2.89 µM; with U251 CNS, 2.84 µM; with UO-31 renal it was 2.74 µM. Further, the TGI with 786-0 renal was 5.43 µM; in the assay with DU-145 prostate, 69.7 µM; with HCT-15 colon it was 14.1 µM; with HOP-62 NSCLC it was 22.3 µM; in the assay with HS 578T breast it was 11.9 µM; in the assay with OVCAR-4 ovarian, more than 100 µM. Further, the TGI worked out at 33.6 µM in the assay with SF-539 CNS, 15.1 µM in the assay on U251 CNS and 11.3 µM in the assay on UO-31 renal.
For `C/C=C(\C)c1cc(=O)c2c(C)cc3c(c2o1)C(=O)c1c(O)c(C2CC(C)(N(C)C)C(O)C(C)O2)cc(C2CC(N(C)C)C(O)C(C)O2)c1C3=O` (stereo unspecified), the TGI is 0.946 µM in the assay with 786-0 renal; 5.75 µM in the assay with DU-145 prostate; 5.15 µM and 24.4 µM in the assay on HCT-15 colon; 0.517 µM in the assay on HS 578T breast; 3.64 µM and 11.2 µM in the assay on OVCAR-4 ovarian; 1.35 µM and 5.71 µM in the assay on U251 CNS. Besides, the GI50 was 0.42 µM and 3.22 µM with HCT-15 colon; 0.206 µM and 1.74 µM with U251 CNS; 0.531 µM and 3.98 µM in the assay on UO-31 renal.
`COc1cc([N+](=O)[O-])c(S(=O)(=O)O)cc1NS(=O)(=O)c1ccc(C)cc1`: the TGI with 786-0 renal, with DU-145 prostate, in the assay on HCT-15 colon, in the assay with HOP-62 NSCLC, with HS 578T breast and with OVCAR-4 ovarian was more than 100 µM each time. The TGI with SF-539 CNS, in the assay on U251 CNS and in the assay on UO-31 renal was more than 100 µM in each case.
As for `CC1(C)CCC[C@@]2(C)C1C[C@H](O)[C@@]1(C)O[C@@](C)([C@H](O)CO)CCC21` (stereo partly specified), the TGI in the assay with 786-0 renal, in the assay on HCT-15 colon, in the assay with HOP-62 NSCLC, in the assay on MALME-3M melanoma, with OVCAR-4 ovarian and in the assay on SF-539 CNS was more than 100 µM in each case. The TGI with U251 CNS was more than 100 µM; in the assay with UO-31 renal, 85.3 µM.
